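Compound exposure: 48 hours, 5 concentrations, 96-well plates. GI50: concentration for 50% inhibition of growth. At the TGI there is no net growth.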
Legend:
Assay in all cases: NCI tumour cell line growth inhibition, 48 h
786-0 renal = system: 786-0 renal
A498 renal = system: A498 renal
A549 NSCLC = system: A549 NSCLC
ACHN renal = system: ACHN renal
BT-549 breast = system: BT-549 breast
CCRF-CEM leukemia = system: CCRF-CEM leukemia
COLO 205 colon = system: COLO 205 colon
DU-145 prostate = system: DU-145 prostate
EKVX NSCLC = system: EKVX NSCLC
HCC-2998 colon = system: HCC-2998 colon
HCT-116 colon = system: HCT-116 colon
HCT-15 colon = system: HCT-15 colon
HL-60(TB) leukemia = system: HL-60(TB) leukemia
HOP-62 NSCLC = system: HOP-62 NSCLC
HOP-92 NSCLC = system: HOP-92 NSCLC
HS 578T breast = system: HS 578T breast
HT29 colon = system: HT29 colon
IGROV1 ovarian = system: IGROV1 ovarian
K-562 leukemia = system: K-562 leukemia
KM12 colon = system: KM12 colon
LOX IMVI melanoma = system: LOX IMVI melanoma
M14 melanoma = system: M14 melanoma
MALME-3M melanoma = system: MALME-3M melanoma
MCF7 breast = system: MCF7 breast
MDA-MB-231 breast = system: MDA-MB-231 breast
MDA-MB-435 = system: MDA-MB-435
MOLT-4 leukemia = system: MOLT-4 leukemia
NCI-H226 lung = system: NCI-H226 lung
NCI-H23 lung = system: NCI-H23 lung
NCI-H460 lung = system: NCI-H460 lung
NCI-H522 lung = system: NCI-H522 lung
NCI/ADR-RES ovarian = system: NCI/ADR-RES ovarian
OVCAR-3 ovarian = system: OVCAR-3 ovarian
OVCAR-4 ovarian = system: OVCAR-4 ovarian
OVCAR-5 ovarian = system: OVCAR-5 ovarian
OVCAR-8 ovarian = system: OVCAR-8 ovarian
PC-3 prostate = system: PC-3 prostate
RPMI-8226 leukemia = system: RPMI-8226 leukemia
RXF 393 renal = system: RXF 393 renal
SF-268 CNS = system: SF-268 CNS
SF-295 CNS = system: SF-295 CNS
SF-539 CNS = system: SF-539 CNS
SK-MEL-2 melanoma = system: SK-MEL-2 melanoma
SK-MEL-28 melanoma = system: SK-MEL-28 melanoma
SK-MEL-5 melanoma = system: SK-MEL-5 melanoma
SK-OV-3 ovarian = system: SK-OV-3 ovarian
SN12C renal = system: SN12C renal
SNB-19 CNS = system: SNB-19 CNS
SNB-75 CNS = system: SNB-75 CNS
SR leukemia = system: SR leukemia
SW-620 colon = system: SW-620 colon
T-47D breast = system: T-47D breast
TK-10 renal = system: TK-10 renal
U251 CNS = system: U251 CNS
UACC-257 melanoma = system: UACC-257 melanoma
UACC-62 melanoma = system: UACC-62 melanoma
UO-31 renal = system: UO-31 renal

COc1cc(/C=C/C(=O)N2CCC=CC2=O)cc(OC)c1OC
GI50 (786-0 renal): 2.41 µM | TGI (786-0 renal): 7.03 µM | GI50 (A498 renal): 14.9 µM | TGI (A498 renal): 29.4 µM | GI50 (A549 NSCLC): 8.57 µM | TGI (A549 NSCLC): 22.8 µM | GI50 (ACHN renal): 1.73 µM | TGI (ACHN renal): 3.28 µM | GI50 (BT-549 breast): 2.45 µM | TGI (BT-549 breast): 7.84 µM | GI50 (CCRF-CEM leukemia): 2.12 µM | TGI (CCRF-CEM leukemia): 6.29 µM | GI50 (COLO 205 colon): 1.93 µM | TGI (COLO 205 colon): 4.14 µM | GI50 (DU-145 prostate): 4.05 µM | TGI (DU-145 prostate): 18.6 µM | GI50 (EKVX NSCLC): 2.94 µM | TGI (EKVX NSCLC): 14.2 µM | GI50 (HCC-2998 colon): 1.77 µM | TGI (HCC-2998 colon): 3.56 µM | GI50 (HCT-116 colon): 1.8 µM | TGI (HCT-116 colon): 4.13 µM | GI50 (HCT-15 colon): 1.83 µM | TGI (HCT-15 colon): 5.01 µM | GI50 (HL-60(TB) leukemia): 1.91 µM | TGI (HL-60(TB) leukemia): 5.28 µM | GI50 (HOP-62 NSCLC): 6.93 µM | TGI (HOP-62 NSCLC): 22.2 µM | GI50 (HOP-92 NSCLC): 2.29 µM | TGI (HOP-92 NSCLC): 4.61 µM | GI50 (HS 578T breast): 5.36 µM | TGI (HS 578T breast): 43.6 µM | GI50 (HT29 colon): 2.98 µM | TGI (HT29 colon): 9.08 µM | GI50 (IGROV1 ovarian): 2.21 µM | TGI (IGROV1 ovarian): 11.2 µM | GI50 (K-562 leukemia): 2.98 µM | TGI (K-562 leukemia): > 100 µM | GI50 (KM12 colon): 3.18 µM | TGI (KM12 colon): 12.8 µM | GI50 (LOX IMVI melanoma): 2.09 µM | TGI (LOX IMVI melanoma): 5.13 µM | GI50 (M14 melanoma): 1.92 µM | TGI (M14 melanoma): 4.41 µM | GI50 (MALME-3M melanoma): 1.97 µM | TGI (MALME-3M melanoma): 3.97 µM | GI50 (MCF7 breast): 2.36 µM | TGI (MCF7 breast): 13.9 µM | GI50 (MDA-MB-231 breast): 3.38 µM | TGI (MDA-MB-231 breast): 10.8 µM | GI50 (MDA-MB-435): 2.21 µM | TGI (MDA-MB-435): 6.05 µM | GI50 (MOLT-4 leukemia): 2.74 µM | TGI (MOLT-4 leukemia): 9.48 µM | GI50 (NCI-H226 lung): 2.41 µM | TGI (NCI-H226 lung): 6.55 µM | GI50 (NCI-H23 lung): 1.81 µM | TGI (NCI-H23 lung): 4.03 µM | GI50 (NCI-H460 lung): 3.36 µM | TGI (NCI-H460 lung): 10.6 µM | GI50 (NCI-H522 lung): 1.8 µM | TGI (NCI-H522 lung): 3.75 µM | GI50 (NCI/ADR-RES ovarian): 3.41 µM | TGI (NCI/ADR-RES ovarian): 47.9 µM | GI50 (OVCAR-3 ovarian): 3.34 µM | TGI (OVCAR-3 ovarian): 11.9 µM | GI50 (OVCAR-4 ovarian): 3.11 µM | TGI (OVCAR-4 ovarian): 17.4 µM | GI50 (OVCAR-5 ovarian): 2.77 µM | TGI (OVCAR-5 ovarian): 8.68 µM | GI50 (OVCAR-8 ovarian): 2.86 µM | TGI (OVCAR-8 ovarian): 8.17 µM | GI50 (PC-3 prostate): 7.36 µM | TGI (PC-3 prostate): 28.5 µM | GI50 (RPMI-8226 leukemia): 1.5 µM | TGI (RPMI-8226 leukemia): 4.81 µM | GI50 (RXF 393 renal): 1.73 µM | TGI (RXF 393 renal): 4.07 µM | GI50 (SF-268 CNS): 3.2 µM | TGI (SF-268 CNS): 12.6 µM | GI50 (SF-295 CNS): 6.37 µM | TGI (SF-295 CNS): 21.1 µM | GI50 (SF-539 CNS): 1.82 µM | TGI (SF-539 CNS): 4.47 µM | GI50 (SK-MEL-2 melanoma): 2.53 µM | TGI (SK-MEL-2 melanoma): 7.09 µM | GI50 (SK-MEL-28 melanoma): 2.21 µM | TGI (SK-MEL-28 melanoma): 5.53 µM | GI50 (SK-MEL-5 melanoma): 3.35 µM | TGI (SK-MEL-5 melanoma): 12 µM | GI50 (SK-OV-3 ovarian): 13.8 µM | TGI (SK-OV-3 ovarian): 27.3 µM | GI50 (SN12C renal): 2.64 µM | TGI (SN12C renal): 7.84 µM | GI50 (SNB-19 CNS): 5.55 µM | TGI (SNB-19 CNS): 20.6 µM | GI50 (SNB-75 CNS): 36.6 µM | TGI (SNB-75 CNS): > 100 µM | GI50 (SR leukemia): 1.75 µM | TGI (SR leukemia): > 100 µM | GI50 (SW-620 colon): 2.51 µM | TGI (SW-620 colon): 6.61 µM | GI50 (T-47D breast): 2.56 µM | TGI (T-47D breast): 8.51 µM | GI50 (TK-10 renal): 2.99 µM | TGI (TK-10 renal): 6.76 µM | GI50 (U251 CNS): 3.19 µM | TGI (U251 CNS): 11 µM | GI50 (UACC-257 melanoma): 2.23 µM | TGI (UACC-257 melanoma): 5.37 µM | GI50 (UACC-62 melanoma): 1.85 µM | TGI (UACC-62 melanoma): 3.82 µM | GI50 (UO-31 renal): 1.78 µM | TGI (UO-31 renal): 5.09 µM

Reference: PubChem BioAssay (NCI)
